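Where inhibition never reached the appropriate level, the endpoint shown equals the highest concentration tested. Otherwise, values were interpolated linearly from a five-concentration, 48-hour dose response in 96-well plates. GI50 marks 50% less growth. Definition used: TGI = concentration required for complete inhibition of growth.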
Legend:
Experiment in all cases: NCI tumour cell line growth inhibition, 48 h
CCRF-CEM leukemia = tested on: CCRF-CEM leukemia
TK-10 renal = tested on: TK-10 renal
NCI-H23 lung = tested on: NCI-H23 lung
ACHN renal = tested on: ACHN renal
MALME-3M melanoma = tested on: MALME-3M melanoma
SK-MEL-5 melanoma = tested on: SK-MEL-5 melanoma
HOP-92 NSCLC = tested on: HOP-92 NSCLC
HCT-116 colon = tested on: HCT-116 colon
A549 NSCLC = tested on: A549 NSCLC
UACC-62 melanoma = tested on: UACC-62 melanoma
OVCAR-3 ovarian = tested on: OVCAR-3 ovarian
MDA-MB-435 = tested on: MDA-MB-435
HL-60(TB) leukemia = tested on: HL-60(TB) leukemia
M14 melanoma = tested on: M14 melanoma
LOX IMVI melanoma = tested on: LOX IMVI melanoma
KM12 colon = tested on: KM12 colon
DU-145 prostate = tested on: DU-145 prostate
RPMI-8226 leukemia = tested on: RPMI-8226 leukemia
UACC-257 melanoma = tested on: UACC-257 melanoma
COLO 205 colon = tested on: COLO 205 colon
NCI-H460 lung = tested on: NCI-H460 lung
NCI-H522 lung = tested on: NCI-H522 lung
HT29 colon = tested on: HT29 colon
SF-539 CNS = tested on: SF-539 CNS
MCF7 breast = tested on: MCF7 breast
HS 578T breast = tested on: HS 578T breast
T-47D breast = tested on: T-47D breast
BT-549 breast = tested on: BT-549 breast
IGROV1 ovarian = tested on: IGROV1 ovarian
EKVX NSCLC = tested on: EKVX NSCLC
PC-3 prostate = tested on: PC-3 prostate
A498 renal = tested on: A498 renal
OVCAR-4 ovarian = tested on: OVCAR-4 ovarian
NCI-H226 lung = tested on: NCI-H226 lung
MDA-MB-468 breast = tested on: MDA-MB-468 breast
MOLT-4 leukemia = tested on: MOLT-4 leukemia
HOP-62 NSCLC = tested on: HOP-62 NSCLC
SF-295 CNS = tested on: SF-295 CNS
OVCAR-5 ovarian = tested on: OVCAR-5 ovarian
NCI/ADR-RES ovarian = tested on: NCI/ADR-RES ovarian
786-0 renal = tested on: 786-0 renal
SK-MEL-28 melanoma = tested on: SK-MEL-28 melanoma
SR leukemia = tested on: SR leukemia
SNB-19 CNS = tested on: SNB-19 CNS
CAKI-1 renal = tested on: CAKI-1 renal
SW-620 colon = tested on: SW-620 colon
RXF 393 renal = tested on: RXF 393 renal
OVCAR-8 ovarian = tested on: OVCAR-8 ovarian
SF-268 CNS = tested on: SF-268 CNS
HCT-15 colon = tested on: HCT-15 colon
HCC-2998 colon = tested on: HCC-2998 colon
K-562 leukemia = tested on: K-562 leukemia
SN12C renal = tested on: SN12C renal
SK-OV-3 ovarian = tested on: SK-OV-3 ovarian
U251 CNS = tested on: U251 CNS

In the case of `O=C(Nc1nc2ccc([N+](=O)[O-])cc2s1)Nc1cc(Cl)ccc1I`, the GI50 (CCRF-CEM leukemia) is reported as 3.4 µM, the TGI (CCRF-CEM leukemia) is reported as 12.4 µM and the GI50 (TK-10 renal) is reported as 8.2 µM. It also gave a TGI (TK-10 renal) of 20.7 µM, a GI50 (NCI-H23 lung) of 2.78 µM and a TGI (NCI-H23 lung) of 8.9 µM. For the same compound, the GI50 (ACHN renal) was 5.29 µM, the TGI (ACHN renal) was 17.4 µM and the GI50 (MALME-3M melanoma) was 3.26 µM. It also gave a TGI (MALME-3M melanoma) of 13.1 µM, a GI50 (SK-MEL-5 melanoma) of 2.7 µM and a TGI (SK-MEL-5 melanoma) of 7.52 µM. For the same compound, the GI50 (HOP-92 NSCLC) was 2.63 µM, the TGI (HOP-92 NSCLC) was 7.46 µM and the GI50 (HCT-116 colon) was 3.24 µM. It also gave a TGI (HCT-116 colon) of 12 µM, a GI50 (A549 NSCLC) of 9.8 µM and a TGI (A549 NSCLC) of 21.6 µM. It also gave a GI50 (UACC-62 melanoma) of 4.11 µM, a TGI (UACC-62 melanoma) of 15.4 µM and a GI50 (OVCAR-3 ovarian) of 4.29 µM. For the same compound, the TGI (OVCAR-3 ovarian) was 14.8 µM, the GI50 (MDA-MB-435) was 6.4 µM and the TGI (MDA-MB-435) was 21 µM. For the same compound, the GI50 (HL-60(TB) leukemia) was 3.81 µM, the TGI (HL-60(TB) leukemia) was 16.8 µM and the GI50 (M14 melanoma) was 10 µM. For the same compound, the TGI (M14 melanoma) was 22 µM, the GI50 (LOX IMVI melanoma) was 5.85 µM and the TGI (LOX IMVI melanoma) was 18.1 µM. It also gave a GI50 (KM12 colon) of 5.29 µM, a TGI (KM12 colon) of 17.7 µM and a GI50 (DU-145 prostate) of 8.17 µM. The TGI (DU-145 prostate) was 20.6 µM, the GI50 (RPMI-8226 leukemia) was 2.24 µM and the TGI (RPMI-8226 leukemia) was 5.66 µM. For the same compound, the GI50 (UACC-257 melanoma) was 6.8 µM, the TGI (UACC-257 melanoma) was 19.9 µM and the GI50 (COLO 205 colon) was 10.8 µM. For the same compound, the TGI (COLO 205 colon) was 22.9 µM, the GI50 (NCI-H460 lung) was 4.16 µM and the TGI (NCI-H460 lung) was 15.7 µM. For the same compound, the GI50 (NCI-H522 lung) was 2.95 µM, the TGI (NCI-H522 lung) was 10.6 µM and the GI50 (HT29 colon) was 11.4 µM. The TGI (HT29 colon) was 24.2 µM, the GI50 (SF-539 CNS) was 5.09 µM and the TGI (SF-539 CNS) was 17 µM. For the same compound, the GI50 (MCF7 breast) was 3.05 µM, the TGI (MCF7 breast) was 12.1 µM and the GI50 (HS 578T breast) was 4.71 µM. For the same compound, the TGI (HS 578T breast) was 20.8 µM, the GI50 (T-47D breast) was 3.7 µM and the TGI (T-47D breast) was 14.5 µM. It also gave a GI50 (BT-549 breast) of 3.56 µM, a TGI (BT-549 breast) of 14.5 µM and a GI50 (IGROV1 ovarian) of 4.49 µM. For the same compound, the TGI (IGROV1 ovarian) was 15.8 µM, the GI50 (EKVX NSCLC) was 3.6 µM and the TGI (EKVX NSCLC) was 13.6 µM. For the same compound, the GI50 (PC-3 prostate) was 3.78 µM, the TGI (PC-3 prostate) was 13.5 µM and the GI50 (A498 renal) was 4.25 µM. The TGI (A498 renal) was 16.1 µM, the GI50 (OVCAR-4 ovarian) was 5.28 µM and the TGI (OVCAR-4 ovarian) was 19.3 µM. For the same compound, the GI50 (NCI-H226 lung) was 7.18 µM, the TGI (NCI-H226 lung) was 20.5 µM and the GI50 (MDA-MB-468 breast) was 3.54 µM. For the same compound, the TGI (MDA-MB-468 breast) was 10.6 µM, the GI50 (MOLT-4 leukemia) was 3.43 µM and the TGI (MOLT-4 leukemia) was 12 µM. It also gave a GI50 (HOP-62 NSCLC) of 9.29 µM, a TGI (HOP-62 NSCLC) of 21.7 µM and a GI50 (SF-295 CNS) of 5.56 µM. The TGI (SF-295 CNS) was 18.6 µM, the GI50 (OVCAR-5 ovarian) was 11.6 µM and the TGI (OVCAR-5 ovarian) was 23.9 µM. For the same compound, the GI50 (NCI/ADR-RES ovarian) was 4.85 µM, the TGI (NCI/ADR-RES ovarian) was 18.1 µM and the GI50 (786-0 renal) was 7.32 µM. The TGI (786-0 renal) was 20.2 µM, the GI50 (SK-MEL-28 melanoma) was 4.75 µM and the TGI (SK-MEL-28 melanoma) was 16.6 µM. The GI50 (SR leukemia) was 3.16 µM, the TGI (SR leukemia) was 12.4 µM and the GI50 (SNB-19 CNS) was 5.5 µM. The TGI (SNB-19 CNS) was 18.1 µM, the GI50 (CAKI-1 renal) was 5.87 µM and the TGI (CAKI-1 renal) was 19.3 µM. The GI50 (SW-620 colon) was 5.46 µM, the TGI (SW-620 colon) was 18.6 µM and the GI50 (RXF 393 renal) was 7.38 µM. For the same compound, the TGI (RXF 393 renal) was 20.3 µM, the GI50 (OVCAR-8 ovarian) was 12.9 µM and the TGI (OVCAR-8 ovarian) was 26.7 µM. The GI50 (SF-268 CNS) was 9.35 µM, the TGI (SF-268 CNS) was 23.9 µM and the GI50 (HCT-15 colon) was 4.04 µM. The TGI (HCT-15 colon) was 15.6 µM, the GI50 (HCC-2998 colon) was 4.7 µM and the TGI (HCC-2998 colon) was 16.2 µM. The GI50 (K-562 leukemia) was 3.55 µM, the TGI (K-562 leukemia) was 13.6 µM and the GI50 (SN12C renal) was 4.06 µM. For the same compound, the TGI (SN12C renal) was 15.8 µM, the GI50 (SK-OV-3 ovarian) was 7.84 µM and the TGI (SK-OV-3 ovarian) was 20.4 µM. For the same compound, the GI50 (U251 CNS) was 5.36 µM and the TGI (U251 CNS) was 17.8 µM.
